Test results published in ChEMBL document CHEMBL4325854, “Synthetic small molecules as anti-biofilm agents in the struggle against antibiotic resistance” (Eur J Med Chem, 2019).
Positions of bridges follow the written chain, without caps; N, C: chain ends. Residues, ends and D or L forms follow the SMILES beside them. Groups on a side chain read outwards from the residue. Chains are numbered I, II in the order given. *: point of attachment. Acetyl(C-α-L-Fucp) = C[C@@H]1O[C@@H](CC(=O)*)[C@@H](O)[C@H](O)[C@@H]1O

Tests used:
Pseudomonas aeruginosa [1] = assay: Antibiofilm activity against Pseudomonas aeruginosa PA14 assessed as inhibition of biofilm dispersion; type: functional, organism-based
[2] = tested on: Bordetella bronchiseptica; assay: Antibiofilm activity against Bordetella bronchiseptica RB50 assessed as inhibition of biofilm dispersion; type: functional, organism-based
Acinetobacter baumannii = assay: Antibiofilm activity against Acinetobacter baumannii preformed biofilms; type: functional, organism-based
Staphylococcus aureus [3] = assay: Antibiofilm activity against methicillin-resistant Staphylococcus aureus; type: functional, organism-based; details: Staphylococcus aureus
Staphylococcus aureus [4] = assay: Synergistic antibacterial activity against methicillin-resistant Staphylococcus aureus assessed as fold reduction in oxacillin MIC; type: functional
Staphylococcus aureus [5] = assay: Synergistic antibacterial activity against methicillin-resistant Staphylococcus aureus assessed as fold reduction in penicillin G MIC; type: functional
Pseudomonas aeruginosa [6] = assay: Antibiofilm activity against Pseudomonas aeruginosa PAO1; type: functional, organism-based
Pseudomonas aeruginosa [7] = assay: Antibiofilm activity against Pseudomonas aeruginosa PA14; type: functional, organism-based
Pseudomonas aeruginosa [8] = assay: Antibiofilm activity against Pseudomonas aeruginosa PAO1 assessed as inhibition of biofilm dispersion; type: functional, organism-based
[9] = target: Fucose-binding lectin PA-IIL (Pseudomonas aeruginosa (strain ATCC 15692 / DSM 22644 / CIP 104116 / JCM14847 / LMG 12228 / 1C / PRS 101 / PAO1), UniProt Q9HYN5); assay: Inhibition of biotinylated polymeric fucose binding to Pseudomonas aeruginosa LecB expressed in Escherichia coli BL21(DE3) preincubated for 1 hr followed by biotinylated polymeric fucose addition and measured after 1 hr
Sequence of Fucose-binding lectin PA-IIL (Q9HYN5 whole entry): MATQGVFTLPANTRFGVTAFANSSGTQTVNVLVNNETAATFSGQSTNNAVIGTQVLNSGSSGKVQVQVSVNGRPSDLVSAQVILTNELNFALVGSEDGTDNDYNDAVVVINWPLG

Pseudomonas aeruginosa [10] = assay: Antibiofilm activity against Pseudomonas aeruginosa; type: functional, organism-based
Staphylococcus aureus [11] = assay: Antibiofilm activity against Staphylococcus aureus ATCC 25923 at 1.5 ug/ml relative to control; type: functional
Staphylococcus aureus [12] = assay: Antibiofilm activity against Staphylococcus aureus ATCC 29213 at 1.5 ug/ml relative to control; type: functional
[13] = tested on: Staphylococcus epidermidis; assay: Antibiofilm activity against Staphylococcus epidermidis DSM 3269 at 1.5 ug/ml relative to control; type: functional
[14] = tested on: Staphylococcus epidermidis; assay: Antibiofilm activity against Staphylococcus epidermidis RP62A at 1.5 ug/ml relative to control; type: functional
Staphylococcus aureus [15] = assay: Antibiofilm activity against Staphylococcus aureus isolate 657 at 1.5 ug/ml relative to control; type: functional
Staphylococcus aureus [16] = assay: Antibiofilm activity against Staphylococcus aureus isolate 702 at 1.5 ug/ml relative to control; type: functional
Enterococcus faecalis = assay: Antibiofilm activity against Enterococcus faecalis ATCC 29212; type: functional
Staphylococcus aureus [17] = assay: Antibiofilm activity against Staphylococcus aureus BAA-1026; type: functional
Staphylococcus aureus [18] = assay: Antibiofilm activity against Staphylococcus aureus at 100 uM relative to control; type: functional
Sortase A = target: T1, Sortase A (Staphylococcus aureus, UniProt Q9S446); assay: Inhibition of Staphylococcus aureus SrtA
T1 sequence (Q9S446 whole entry): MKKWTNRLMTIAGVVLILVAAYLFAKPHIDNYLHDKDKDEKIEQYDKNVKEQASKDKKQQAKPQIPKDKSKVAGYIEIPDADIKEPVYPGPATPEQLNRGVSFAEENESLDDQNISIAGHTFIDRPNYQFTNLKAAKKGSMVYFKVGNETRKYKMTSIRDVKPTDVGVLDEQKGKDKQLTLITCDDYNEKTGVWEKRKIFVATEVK

Question: With `Nc1nc(CCCNC(=O)c2cc(Br)c(Br)n2CCc2ccccc2)c[nH]1` as the molecule, how does the IC50 (Pseudomonas aeruginosa [1]) read?
Answer: 22.9 µM

Question: What about the IC50 [2] of the same molecule?
Answer: 22.5 µM

Question: For `Nc1nc(CCCNC(=O)c2cc(Br)c(Br)n2-c2ccc(Br)cc2)c[nH]1`, which IC50 (Pseudomonas aeruginosa [1]) is on record?
Answer: 16.4 µM

Question: And the IC50 [2]?
Answer: 29.3 µM

Question: How did the EC50 (Acinetobacter baumannii) turn out when `C/C(=C\c1cccc2ccccc12)Cn1cc(CCCCCc2c[nH]c(N)n2)nn1` was run?
Answer: 44.7 to 59.6 µM

Question: And the EC50 (Staphylococcus aureus [3])?
Answer: 4.5 to 9.8 µM

Question: For `CCCCCCc1ccc(NC(=O)CCn2cc(C[C@@]34CNC[C@@H]3Nc3ccccc34)nn2)cc1`, which IC50 (Staphylococcus aureus [3]) is on record?
Answer: 3.4 µM

Question: Which IC50 (Staphylococcus aureus [3]) does the source give for `CCCCCc1cccc(C(=O)NCCNC(=O)CCCCCc2cnc(N)[nH]2)c1` here?
Answer: 6.5 µg/mL

Question: What about the “fold change (FC)” value (Staphylococcus aureus [4]) of the same molecule?
Answer: 64

Question: And the “fold change (FC)” value (Staphylococcus aureus [5])?
Answer: 16

Question: `CCCCCCCCCCCCNC(=O)CCCc1c[nH]c(N)n1` was tested. Which IC50 (Pseudomonas aeruginosa [6]) did it give?
Answer: 2840 nM

Question: What about the IC50 (Pseudomonas aeruginosa [7]) of the same molecule?
Answer: 2260 nM

Question: And the IC50 (Pseudomonas aeruginosa [1])?
Answer: 2.26 µM

Question: And the IC50 (Pseudomonas aeruginosa [8])?
Answer: 2.8 µM

Question: With `CC[C@H](C)[C@H](NC(=O)[C@H](Cc1cnc[nH]1)NC(=O)[C@H](CCCCNC(=O)[C@@H](NC(=O)[C@H](CCCCN)NC(=O)[C@H](Cc1ccccc1)NC(=O)[C@H](CCCCNC(=O)[C@H](CC(C)C)NC(=O)[C@@H]1CCCN1C(=O)[C@H](CCCCN)NC(=O)C[C@@H]1O[C@@H](C)[C@@H](O)[C@@H](O)[C@@H]1O)NC(=O)[C@H](CC(C)C)NC(=O)[C@@H]1CCCN1C(=O)[C@H](CCCCN)NC(=O)C[C@@H]1O[C@@H](C)[C@@H](O)[C@@H](O)[C@@H]1O)[C@@H](C)CC)NC(=O)[C@@H](NC(=O)[C@H](CCCCN)NC(=O)[C@H](Cc1ccccc1)NC(=O)[C@H](CCCCNC(=O)[C@H](CC(C)C)NC(=O)[C@@H]1CCCN1C(=O)[C@H](CCCCN)NC(=O)C[C@@H]1O[C@@H](C)[C@@H](O)[C@@H](O)[C@@H]1O)NC(=O)[C@H](CC(C)C)NC(=O)[C@@H]1CCCN1C(=O)[C@H](CCCCN)NC(=O)C[C@@H]1O[C@@H](C)[C@@H](O)[C@@H](O)[C@@H]1O)[C@@H](C)CC)C(N)=O` (I: {Acetyl(C-α-L-Fucp)}-KPLK([Leu-Pro-Lys-Acetyl(C-α-L-Fucp)])FKIKHI-NH2 / II: {Acetyl(C-α-L-Fucp)}-KPLK([Leu-Pro-Lys-Acetyl(C-α-L-Fucp)])FKI; amide I:8-II:C) as the molecule, how does the IC50 [9] read?
Answer: 140 nM

Question: And the IC50 (Pseudomonas aeruginosa [10])?
Answer: 10 µM

Question: `O=C(c1cc(Br)c(F)[nH]1)c1cc(Cl)cc(Cl)c1O` was tested. Which Activity (Staphylococcus aureus [11]) did it give?
Answer: >60%

Question: And the Activity (Staphylococcus aureus [12])?
Answer: >60%

Question: And the Activity [13]?
Answer: >60%

Question: And the Activity [14]?
Answer: >60%

Question: What about the Activity (Staphylococcus aureus [15]) of the same molecule?
Answer: >60%

Question: And the Activity (Staphylococcus aureus [16])?
Answer: >60%

Question: How did the MBEC (Enterococcus faecalis) turn out when `NC(=O)c1cc(-c2csc(-c3ccc(-c4csc(-c5ccccc5)n4)cc3)n2)ccc1O` was run?
Answer: 8 µg/mL

Question: And the MBEC (Staphylococcus aureus [17])?
Answer: 250 µg/mL

Question: `CCCCc1ccc(C(=O)NCCn2cc(CCCCc3[nH]c(N)nc3-c3ccoc3)nn2)cc1` was tested. Which IC50 (Staphylococcus aureus [3]) did it give?
Answer: 7.2 µM

Question: Which results are given for `COc1ccc(-c2csc(-c3ccc(-c4csc(-c5ccccc5)n4)cc3)n2)cc1`?
Answer: MBEC (Enterococcus faecalis): 4 µg/mL; MBEC (Staphylococcus aureus [17]): 62 µg/mL

Question: What does the source list for `COc1cc(N/N=C(\C(C)=O)C(=O)O)cc(OC)c1OC`?
Answer: Activity (Staphylococcus aureus [18]): 39.2 - 68.3%; IC50 (Sortase A): 50 to 92 µM

Question: For `Cc1sc(-c2ccc(-c3csc(-c4ccccc4)n3)cc2)nc1-c1ccccc1`, which MBEC (Enterococcus faecalis) is on record?
Answer: 4 µg/mL

Question: And the MBEC (Staphylococcus aureus [17])?
Answer: 1000 µg/mL

Question: With `O=C(c1cc(Br)ccc1O)c1[nH]c(Cl)c(Cl)c1Br` as the molecule, how does the Activity (Staphylococcus aureus [11]) read?
Answer: >60%

Question: And the Activity (Staphylococcus aureus [12])?
Answer: >60%

Question: What about the Activity [13] of the same molecule?
Answer: >60%

Question: And the Activity [14]?
Answer: >60%

Question: And the Activity (Staphylococcus aureus [15])?
Answer: >60%

Question: And the Activity (Staphylococcus aureus [16])?
Answer: >60%

Question: With `CCCCCCCCCCCCCCNC(=O)Cn1cc(C[C@@]23CNC[C@@H]2Nc2ccccc23)nn1` as the molecule, how does the IC50 (Staphylococcus aureus [3]) read?
Answer: 5.4 µM

Question: How did the Activity (Staphylococcus aureus [11]) turn out when `O=C(c1cc(Br)ccc1O)c1[nH]c(Br)c(Br)c1Br` was run?
Answer: >60%

Question: And the Activity (Staphylococcus aureus [12])?
Answer: >60%

Question: What about the Activity [13] of the same molecule?
Answer: >60%

Question: And the Activity [14]?
Answer: >60%

Question: What about the Activity (Staphylococcus aureus [15]) of the same molecule?
Answer: >60%

Question: What about the Activity (Staphylococcus aureus [16]) of the same molecule?
Answer: >60%

Question: For `CCCCOc1ccc(/C=C(\C)Cn2cc(CCCCCc3c[nH]c(N)n3)nn2)cc1`, which EC50 (Acinetobacter baumannii) is on record?
Answer: 44.7 to 59.6 µM

Question: What about the EC50 (Staphylococcus aureus [3]) of the same molecule?
Answer: 4.5 to 9.8 µM

Question: How did the IC50 (Pseudomonas aeruginosa [1]) turn out when `CCCCCCCCNC(=O)CCCc1c[nH]c(N)n1` was run?
Answer: 13.3 µM

Question: And the IC50 (Pseudomonas aeruginosa [8])?
Answer: 18.4 µM

Question: What does the source list for `CC(=O)/C(C#N)=N\Nc1ccccc1`?
Answer: Activity (Staphylococcus aureus [18]): 39.2 - 68.3%; IC50 (Sortase A): 50 to 92 µM

Question: Which results are given for `O=C(c1cc(Cl)cc(Cl)c1O)c1[nH]c(Cl)c(Cl)c1Cl`?
Answer: Activity (Staphylococcus aureus [11]): >60%; Activity (Staphylococcus aureus [12]): >60%; Activity [13]: >60%; Activity [14]: >60%; Activity (Staphylococcus aureus [15]): >60%; Activity (Staphylococcus aureus [16]): >60%

Question: What does the source list for `CCCCCCNC(=O)CCCc1c[nH]c(N)n1`?
Answer: IC50 (Pseudomonas aeruginosa [1]): 39.9 µM; IC50 (Pseudomonas aeruginosa [8]): 32.7 µM

Question: `O=[N+]([O-])c1ccc(-c2csc(-c3ccc(-c4csc(-c5ccccc5)n4)cc3)n2)cc1` was tested. Which MBEC (Enterococcus faecalis) did it give?
Answer: 2 µg/mL

Question: What about the MBEC (Staphylococcus aureus [17]) of the same molecule?
Answer: >1000 µg/mL

Question: What does the source list for `N#Cc1ccc(-c2csc(-c3ccc(-c4csc(-c5ccccc5)n4)cc3)n2)cc1`?
Answer: MBEC (Enterococcus faecalis): 2 µg/mL; MBEC (Staphylococcus aureus [17]): 250 µg/mL

Question: How did the Activity (Staphylococcus aureus [18]) turn out when `CC(=O)/C(=N\Nc1ccc([N+](=O)[O-])cc1)C(=O)O` was run?
Answer: 39.2 - 68.3%

Question: And the IC50 (Sortase A)?
Answer: 50 to 92 µM

Question: `c1ccc(-c2csc(-c3ccc(-c4csc(-c5ccccc5)n4)cc3)n2)cc1` was tested. Which MBEC (Enterococcus faecalis) did it give?
Answer: 2 µg/mL

Question: And the MBEC (Staphylococcus aureus [17])?
Answer: 1000 µg/mL

Question: Which results are given for `CCCc1ccc(-c2[nH]c(N)nc2CCCCCc2cn(C/C(C)=C/c3ccccc3)nn2)cc1`?
Answer: IC50 (Acinetobacter baumannii): 11.3 µM; IC50 (Staphylococcus aureus [3]): 1.42 µM
